Values quoted from earlier work in doi:10.1101/2024.08.20.608791v1 (bioRxiv, 2024).

What was measured:
[1] = system: Caco-2
[2] = oral bioavailability in animals, species not stated
[3] = assay not specified
[4] = <LOQ

Caco-2 permeability (in words) ([1]; Caco-2 experiments) | fa predicted using the Caco-2 assay ([1]; underprediction of human fa from Caco-2) | observed F in animals [2] | in vitro permeability (in words) [3] | calculated log P (calculated) | experimentally determined log P (experimental) | solubility in water (in words) [4] | Structure (SMILES)
moderate permeability | ~50% |  |  |  |  |  | C[C@H]1O[C@@H](O[C@H]2[C@@H](O)C[C@H](O[C@H]3[C@@H](O)C[C@H](O[C@H]4CC[C@@]5(C)[C@H](CC[C@@H]6[C@@H]5C[C@@H](O)[C@]5(C)[C@@H](C7=CC(=O)OC7)CC[C@]65O)C4)O[C@@H]3C)O[C@@H]2C)C[C@H](O)[C@@H]1O [Digoxin]
 |  | 25% | moderate in vitro permeability |  |  |  | CC(=O)O[C@H]1C(=O)[C@@]2(C)[C@H]([C@H](OC(=O)c3ccccc3)[C@]34OC(=O)O[C@H]3[C@H](OC(=O)[C@H](O)[C@H](CC(C)C)NC(=O)OC(C)(C)C)C(C)=C1C4(C)C)[C@]1(OC(C)=O)CO[C@@H]1C[C@@H]2O [ortataxel]
 |  | 52% | high in vitro permeability | 5.4 | 2.4 | practically insoluble in water | CC[C@@H]([C@H](C)O)n1ncn(-c2ccc(N3CCN(c4ccc(OC[C@@H]5CO[C@@](Cn6cncn6)(c6ccc(F)cc6F)C5)cc4)CC3)cc2)c1=O [posaconazole]
 |  | 49-123% | low in vitro permeability |  |  | practically insoluble in water | CC[C@@H]1C[C@]1(NC(=O)[C@@H]1C[C@@H](Oc2cc(-c3csc(NC(C)C)n3)nc3c(Cl)c(OCCN4CCOCC4)ccc23)CN1C(=O)[C@@H](NC(=O)O[C@@H]1C[C@@H]2C[C@@H]2C1)C(C)(C)C)C(=O)O [vedroprevir]
